According to patent US12285012B2, “Compositions comprising pyridine carboxylate herbicides with acetolactate synthase (ALS) inhibitor herbicides” (Corteva Agriscience LLC, priority 2018, dated 2025):
“And” between values parts separate entries of the source, which are not always exact repeats. Identical values can stand only once. Like-named read-outs stand apart in the source and are kept apart here.

Columns and labels:
[1] = system: common lambsquarters (CHEAL, Chenopodium album L.); test: Greenhouse postemergence herbicidal effect; type: in vivo
[2] = system: kochia (KCHSC, Kochia scoparia); test: Greenhouse postemergence herbicidal effect; type: in vivo
How it was run: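 Plants at the second or third true leaf stage received overhead spray at 187 L/ha, with the pyridine carboxylate (plus cloquintocet-mexyl safener) alone or with ALS herbicides in 1.25% v/v crop oil. Rates are in g ae/ha or g ai/ha. Visual injury versus solvent-blank controls was scored 0–100% after 20-22 d in the greenhouse.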

[3] = system: spring wheat (TRZAS); type: in vivo, Triticum aestivum; conditions: for % visual injury Obs-Exp: Pyroxsulam 0
How it was run: (§1)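 Herbicide mixtures, dosed as g ae/ha for the pyridine carboxylate and g ai/ha for the ALS inhibitor, are applied postemergence with cloquintocet-mexyl safener. Control plants receive solvent blank. Percent injury is assessed by eye 20–22 d later.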

[4] = system: Russian thistle (SASKR, Salsola kali); test: Greenhouse postemergence herbicidal effect; type: in vivo
How it was run: as §1

[5] = system: Canadian thistle (CIRAR, Cirsium arvense); test: Greenhouse postemergence herbicidal effect; type: in vivo
How it was run: as §1

[6] = system: wild chamomile (MATCH, Matricaria chamomilla); test: Greenhouse postemergence herbicidal effect; type: in vivo
How it was run: as §1

[7] = system: pineapple weed (MATMT, Matricaria discoidea); test: Greenhouse postemergence herbicidal effect; type: in vivo
How it was run: as §1

[8] = system: pigweed (AMARE, Amaranthus retroflexus); test: Greenhouse postemergence herbicidal effect; type: in vivo
How it was run: as §1

[9] = system: wild buckwheat (POLCO, Polygonum convolvulus); test: Greenhouse postemergence herbicidal effect; type: in vivo
How it was run: as §1

[10] = system: spring barley (HORVS); type: in vivo, Hordeum vulgare
How it was run: as §1

[11] = Compound A 10 g/ha (Examples 62-63)
[12] = Compound A 10 g/ha, safener mefenpyr-diethyl

N#CCOC(=O)c1nc(-c2ccc3cc[nH]c3c2F)c(F)c(N)c1Cl [Compound A, cyanomethyl 4-amino-3-chloro-5-fluoro-6-(7-fluoro-1H-indol-6-yl)pyridine-2-carboxylate]
% visual injury, Obs ([1]; 10 g/ha): 83% and 90% and 78%
% visual injury, Obs ([1]; CHEAL, Compound A 10 g/ha): 78% and 83%
Obs % visual injury ([1]; CHEAL, Compound A 10 g/ha): 78% and 80% and 88%
Obs % visual injury ([1]; CHEAL, Compound A 10 g/ha (Table 65)): 88%
Obs % visual injury ([1]; CHEAL, Compound A 10 g/ha (Table 66)): 78%
Obs % visual injury ([1]; CHEAL, Compound A 10 g/ha (Table 67)): 78%
% visual injury, Obs ([1]; CHEAL, Compound A 15 g/ha): 85%
Obs % visual injury ([1]; CHEAL, Compound A 15 g/ha): 85%
Obs % visual injury ([1]; CHEAL, Compound A 15 g/ha (Table 67)): 83%
% visual injury ([1]; Compound A 10 g/ha): 93% and 78%
% visual injury Obs ([1]; Compound A 10 g/ha): 78% and 83% and 80%
% visual injury, Obs ([1]; Compound A 10 g/ha): 88%
CHEAL % visual injury Obs [1, 11]: 88%
% visual injury, Obs [1, 12]: 100%
CHEAL % visual injury Obs [1, 12]: 100%
% visual injury ([1]; Compound A 15 g/ha): 85%
% visual injury Obs ([1]; Compound A 15 g/ha): 85%
pest or weed control at 10 g/ha ([2]; Bassia scoparia, post-emergence, 10 g/ha, read-out: % visual injury, Obs): 68%
pest or weed control at 10 g/ha ([2]; Bassia scoparia, post-emergence, Compound A 10 g/ha, read-out: % visual injury, Obs): 65%
pest or weed control at 10 g/ha ([2]; Bassia scoparia, post-emergence, Compound A 10 g/ha, safener mefenpyr-diethyl, read-out: % visual injury, Obs): 70%
pest or weed control at 10 g/ha ([2]; Bassia scoparia, post-emergence, KCHSC, Compound A 10 g/ha, read-out: % visual injury, Obs): 68%
pest or weed control at 15 g/ha ([2]; Bassia scoparia, post-emergence, KCHSC, Compound A 15 g/ha, read-out: % visual injury, Obs): 68%
% visual injury ([2]; Compound A 10 g/ha): 75% and 63% and 70% and 68%
% visual injury Obs ([2]; Compound A 10 g/ha): 68% and 58% and 70%
KCHSC % visual injury Obs [2, 11]: 65%
KCHSC % visual injury Obs [2, 12]: 70%
% visual injury ([2]; Compound A 15 g/ha): 75% and 68%
% visual injury Obs ([2]; Compound A 15 g/ha): 68%
Obs % visual injury ([2]; KCHSC, Compound A 10 g/ha): 68% and 70% and 65%
Obs % visual injury ([2]; KCHSC, Compound A 10 g/ha (Table 65)): 65%
Obs % visual injury ([2]; KCHSC, Compound A 10 g/ha (Table 66)): 70%
Obs % visual injury ([2]; KCHSC, Compound A 10 g/ha (Table 67)): 70%
Obs % visual injury ([2]; KCHSC, Compound A 15 g/ha): 68%
Obs % visual injury ([2]; KCHSC, Compound A 15 g/ha (Table 67)): 70%
% visual injury, Obs ([3]; 10 g/ha): 0%
% visual injury ([3]; Compound A 10 g/ha): 0% and 3%
% visual injury Obs ([3]; Compound A 10 g/ha): 0%
% visual injury, Obs ([3]; Compound A 10 g/ha): 0%
TRZAS % visual injury Obs [3, 11]: 0%
% visual injury, Obs [3, 12]: 3%
TRZAS % visual injury Obs [3, 12]: 3%
% visual injury ([3]; Compound A 15 g/ha): 0%
% visual injury Obs ([3]; Compound A 15 g/ha): 0%
% visual injury, Obs ([3]; TRZAS, Compound A 10 g/ha): 0%
Obs % visual injury ([3]; TRZAS, Compound A 10 g/ha): 0%
Obs % visual injury ([3]; TRZAS, Compound A 10 g/ha (Table 65)): 0%
Obs % visual injury ([3]; TRZAS, Compound A 10 g/ha (Table 66)): 0%
Obs % visual injury ([3]; TRZAS, Compound A 10 g/ha (Table 67)): 3%
% visual injury, Obs ([3]; TRZAS, Compound A 15 g/ha): 0%
Obs % visual injury ([3]; TRZAS, Compound A 15 g/ha): 0%
Obs % visual injury ([3]; TRZAS, Compound A 15 g/ha (Table 67)): 0%
% visual injury Obs-Exp ([3]; printed under Compound A 10 g/ha): 0%
% visual injury Obs-Exp ([3]; printed under Compound A 15 g/ha): 0%
% visual injury, Obs ([4]; 10 g/ha): 60% and 63%
% visual injury ([4]; Compound A 10 g/ha): 70% and 63%
% visual injury Obs ([4]; Compound A 10 g/ha): 60% and 63%
% visual injury, Obs ([4]; Compound A 10 g/ha): 65%
SASKR % visual injury Obs [4, 11]: 65%
% visual injury ([4]; Compound A 15 g/ha): 75%
% visual injury, Obs ([4]; SASKR, Compound A 10 g/ha): 60%
Obs % visual injury ([4]; SASKR, Compound A 10 g/ha): 63% and 65%
Obs % visual injury ([4]; SASKR, Compound A 10 g/ha (Table 65)): 65%
Obs % visual injury ([4]; SASKR, Compound A 10 g/ha (Table 67)): 58%
Obs % visual injury ([4]; SASKR, Compound A 15 g/ha (Table 67)): 65%
Obs % visual injury ([5]; CIRAR, Compound A 10 g/ha (Table 65)): 20%
Obs % visual injury ([5]; CIRAR, Compound A 10 g/ha (Table 66)): 30%
Obs % visual injury ([5]; CIRAR, Compound A 15 g/ha): 55%
pest or weed control at 10 g/ha ([5]; Cirsium arvense, post-emergence, 10 g/ha, read-out: % visual injury, Obs): 43%
pest or weed control at 10 g/ha ([5]; Cirsium arvense, post-emergence, CIRAR, Compound A 10 g/ha, read-out: % visual injury, Obs): 33%
pest or weed control at 15 g/ha ([5]; Cirsium arvense, post-emergence, CIRAR, Compound A 15 g/ha, read-out: % visual injury, Obs): 55%
pest or weed control at 10 g/ha ([5]; Cirsium arvense, post-emergence, Compound A 10 g/ha, read-out: % visual injury, Obs): 20%
pest or weed control at 10 g/ha ([5]; Cirsium arvense, post-emergence, Compound A 10 g/ha, safener mefenpyr-diethyl, read-out: % visual injury, Obs): 43%
% visual injury ([5]; Compound A 10 g/ha): 40% and 60% and 30% and 33%
% visual injury Obs ([5]; Compound A 10 g/ha): 33% and 55%
CIRAR % visual injury Obs [5, 11]: 20%
CIRAR % visual injury Obs [5, 12]: 43%
% visual injury ([5]; Compound A 15 g/ha): 65% and 55%
% visual injury Obs ([5]; Compound A 15 g/ha): 55%
% visual injury ([6]; Compound A 10 g/ha): 40% and 30% and 45%
% visual injury, Obs ([6]; Compound A 10 g/ha): 13%
MATCH % visual injury Obs [6, 11]: 13%
% visual injury ([6]; Compound A 15 g/ha): 50% and 45%
% visual injury Obs ([6]; Compound A 15 g/ha): 45%
Obs % visual injury ([6]; MATCH, Compound A 10 g/ha (Table 65)): 13%
Obs % visual injury ([6]; MATCH, Compound A 10 g/ha (Table 66)): 30%
Obs % visual injury ([6]; MATCH, Compound A 10 g/ha (Table 67)): 15%
% visual injury, Obs ([6]; MATCH, Compound A 15 g/ha): 45%
Obs % visual injury ([6]; MATCH, Compound A 15 g/ha): 45%
Obs % visual injury ([6]; MATCH, Compound A 15 g/ha (Table 67)): 10%
% visual injury ([7]; Compound A 10 g/ha): 15%
% visual injury ([7]; Compound A 15 g/ha): 30%
% visual injury, Obs ([8]; 10 g/ha): 90%
% visual injury, Obs ([8]; AMARE, Compound A 10 g/ha): 75%
Obs % visual injury ([8]; AMARE, Compound A 10 g/ha): 75% and 85% and 100%
Obs % visual injury ([8]; AMARE, Compound A 10 g/ha (Table 65)): 100%
Obs % visual injury ([8]; AMARE, Compound A 10 g/ha (Table 66)): 90%
Obs % visual injury ([8]; AMARE, Compound A 10 g/ha (Table 67)): 78%
% visual injury, Obs ([8]; AMARE, Compound A 15 g/ha): 80%
Obs % visual injury ([8]; AMARE, Compound A 15 g/ha): 80%
Obs % visual injury ([8]; AMARE, Compound A 15 g/ha (Table 67)): 83%
% visual injury ([8]; Compound A 10 g/ha): 73% and 90% and 75%
% visual injury Obs ([8]; Compound A 10 g/ha): 75% and 100% and 85%
% visual injury, Obs ([8]; Compound A 10 g/ha): 100%
AMARE % visual injury Obs [8, 11]: 100%
% visual injury, Obs [8, 12]: 98%
AMARE % visual injury Obs [8, 12]: 98%
% visual injury ([8]; Compound A 15 g/ha): 80%
% visual injury Obs ([8]; Compound A 15 g/ha): 80%
% visual injury, Obs ([9]; 10 g/ha): 70%
% visual injury ([9]; Compound A 10 g/ha): 95% and 93% and 70% and 98%
% visual injury, Obs ([9]; Compound A 10 g/ha): 91%
POLCO % visual injury Obs [9, 11]: 91%
% visual injury, Obs [9, 12]: 100%
POLCO % visual injury Obs [9, 12]: 100%
% visual injury ([9]; Compound A 15 g/ha): 97% and 88%
% visual injury Obs ([9]; Compound A 15 g/ha): 88%
% visual injury, Obs ([9]; POLCO, Compound A 10 g/ha): 98% and 78%
Obs % visual injury ([9]; POLCO, Compound A 10 g/ha (Table 65)): 91%
Obs % visual injury ([9]; POLCO, Compound A 10 g/ha (Table 66)): 70%
Obs % visual injury ([9]; POLCO, Compound A 10 g/ha (Table 67)): 60%
% visual injury, Obs ([9]; POLCO, Compound A 15 g/ha): 88%
Obs % visual injury ([9]; POLCO, Compound A 15 g/ha): 88%
Obs % visual injury ([9]; POLCO, Compound A 15 g/ha (Table 67)): 63%
% visual injury, Obs ([10]; 10 g/ha): 0%
% visual injury ([10]; Compound A 10 g/ha): 0%
% visual injury Obs ([10]; Compound A 10 g/ha): 0%
% visual injury, Obs ([10]; Compound A 10 g/ha): 0%
HORVS % visual injury Obs [10, 11]: 0%
% visual injury ([10]; Compound A 15 g/ha): 0%
% visual injury Obs ([10]; Compound A 15 g/ha): 0%
% visual injury, Obs ([10]; HORVS, Compound A 10 g/ha): 0%
Obs % visual injury ([10]; HORVS, Compound A 10 g/ha): 0%
Obs % visual injury ([10]; HORVS, Compound A 10 g/ha (Table 65)): 0%
Obs % visual injury ([10]; HORVS, Compound A 10 g/ha (Table 66)): 0%
Obs % visual injury ([10]; HORVS, Compound A 10 g/ha (Table 67)): 5%
% visual injury, Obs ([10]; HORVS, Compound A 15 g/ha): 0%
Obs % visual injury ([10]; HORVS, Compound A 15 g/ha): 0%
Obs % visual injury ([10]; HORVS, Compound A 15 g/ha (Table 67)): 3%
